This passage reports IC50 results from US20230181536A1, “ANTICANCER COMBINATION THERAPY WITH N-(1-ACRYLOYL-AZETIDIN-3-YL)-2-((1H-INDAZOL-3-YL)AMINO)METHYL)-1H-IMIDAZOLE-5-CARBOXAMIDE INHIBITOR OF KRAS-G12C” (TAIHO PHARMACEUTICAL CO., LTD., priority 2020, published 2023).

The IC50 is the concentration needed to halve the response being measured. Higher therefore signals weaker potency.

The target of this experiment is T1, KRAS G12C (Homo sapiens, UniProt P01116, G12C).
T1 construct: KRAS G12C (amino acid region: 1-169)
T1 sequence (P01116 1-169 isoform P01116-2 G12C): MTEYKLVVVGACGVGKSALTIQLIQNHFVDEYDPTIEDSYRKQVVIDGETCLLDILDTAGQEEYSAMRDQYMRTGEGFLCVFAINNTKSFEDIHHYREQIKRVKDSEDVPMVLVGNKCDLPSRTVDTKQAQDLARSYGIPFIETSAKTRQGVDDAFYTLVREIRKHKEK
Put plainly: Inhibitory activity on the KRAS G12C nucleotide (GDP-GTP) exchange reaction. Type of experiment: biochemical. The settings on record: Bodipy FL GDP-bound KRAS G12C 25 nM; preincubation at 25° C. for 4 hours; SOS1 100 nM, GppNHp 1 μM, reaction for 30 minutes. On the procedure: Test Example 2: Evaluation of Inhibitory Activity of Compounds on the KRAS G12C Nucleotide (GDP-GTP) Exchange Reaction
The inhibitory activity of compounds on the exchange reaction of GDP into GppNHp in Bodipy (trademark) FL-bound KRAS G12C was examined by fluorescence measurement using human recombinant KRAS G12C and SOS1 proteins.
For the preparation of KRAS G12C to which Bodipy FL GDP was bound, first, 50 µM KRAS G12C (amino acid region: 1-169) and 1 mM Bodipy FL GDP (Invitrogen, G22360) were incubated for 1 hour in a buffer (20 mM Tris-HCl (pH 7.5), 50 mM NaCl, 1 mM DTT) in ice in the presence of 2.5 mM EDTA. Thereafter, MgCl2 with a final concentration of 10 mM was added, and the mixture was incubated at room temperature for 30 minutes. The protein was allowed to pass through a NAP-5 column to remove free nucleotides and was used for compound evaluation.
For the measurement of the inhibitory activity of compounds on nucleotide exchange reaction, first, the compound of the disclosure was diluted stepwise with dimethyl sulfoxide (DMSO). Subsequently, a solution of the gradually diluted compound of the disclosure in DMSO (the final concentration of DMSO: 5%) and KRAS G12C (25 nM) bound to Bodipy FL GDP were added to a reaction buffer (20 mM Tris-HCl (pH 7.5), 100 mM NaCl, 1 mM MgCl2, 2 mM DTT, 0.1% Tween20), followed by preincubation at 25° C. for 4 hours. Thereafter, Son of Sevenless Homolog 1 (SOS1, amino acid region: 564-1049) and GppNHp (GMPPNP, Jena Bioscience GmbH, NU-401-50) were added such that their final concentration was 100 nM and 1 μM respectively, followed by reaction for 30 minutes. The change in fluorescence intensity of Bodipy FL (excitation wavelength: 485 nm, fluorescence wavelength: 520 nm) immediately after the start of reaction and after 30 minutes from the start of reaction was standardized. The signal value for only DMSO was determined to be 0% inhibition, and the signal value for no addition of GppNHp was determined to be 100% inhibition. The compound concentration at which 50% inhibition is achieved was determined to be the IC50 (nM) and was calculated.
Take `C=CC(=O)N1CC(NC(=O)c2c(C)nc(CNc3n[nH]c4cc(Cl)c(C(C)(C)C)cc34)n2CC)C1` [Example 12, N-(1-acryloylazetidin-3-yl)-2-(((5-(tert-butyl)-6-chloro-1H-indazol-3-yl)amino)methyl)-1-ethyl-4-methyl-1H-imidazole-5-carboxamide]: the IC50 was determined as 0.016 µM.

With `C=CC(=O)N1CC(NC(=O)c2c(C)nc(CNc3n[nH]c4cc(C)c(C(C)(C)C)cc34)n2C)C1` [Example 41, N-(1-acryloylazetidin-3-yl)-2-(((5-(tert-butyl)-6-methyl-1H-indazol-3-yl)amino)methyl)-1,4-dimethyl-1H-imidazole-5-carboxamide], the IC50 stood at 0.014 µM.

The compound `C=CC(=O)N1C[C@@H](C)[C@@H](NC(=O)c2c(C)nc(CNc3n[nH]c4cc(Cl)c(C(C)(C)C)cc34)n2C)C1` [Example 55, N-((3R,4R)-1-acryloyl-4-methylpyrrolidin-3-yl)-2-(((5-(tert-butyl)-6-chloro-1H-indazol-3-yl)amino)methyl)-1,4-dimethyl-1H-imidazole-5-carboxamide] yielded an IC50 of 0.024 µM. This IC50 is about 1.7-fold higher than that of the compound before.

`C=CC(=O)N1CC(NC(=O)c2c(Cl)nc(CNc3n[nH]c4cc(Cl)c(C(C)(C)C)cc34)n2[C@@H]2CCN(CC(F)F)[C@H]2C)C1` [Example 125, N-(1-acryloylazetidin-3-yl)-2-(((5-(tert-butyl)-6-chloro-1H-indazol-3-yl)amino)methyl)-4-chloro-1-((2S,3R)-1-(2,2-difluoroethyl)-2-methylpyrrolidin-3-yl)-1H-imidazole-5-carboxamide] yielded an IC50 of 0.013 µM. Against the preceding compound, the IC50 is about 1.8-fold lower.

`C=CC(=O)N1CC(NC(=O)c2c(Cl)nc(CNc3n[nH]c4cc(Cl)c(C(C)(C)C)cc34)n2C2CC=CC2)C1` [Example 98, N-(1-acryloylazetidin-3-yl)-2-(((5-(tert-butyl)-6-chloro-1H-indazol-3-yl)amino)methyl)-4-chloro-1-(cyclopent-3-en-1-yl)-1H-imidazole-5-carboxamide] gave an IC50 of 0.007 µM.

`C=CC(=O)N1CC(NC(=O)c2c(Cl)nc(CNc3n[nH]c4cc(Cl)c(C(=C)C(F)(F)F)cc34)n2C(C)C)C1` [Example 43, N-(1-acryloylazetidin-3-yl)-4-chloro-2-(((6-chloro-5-(3,3,3-trifluoroprop-1-en-2-yl)-1H-indazol-3-yl)amino)methyl)-1-isopropyl-1H-imidazole-5-carboxamide] registered an IC50 of 0.809 µM. Against the preceding compound, the IC50 is about 120-fold higher.

In turn, `C=CC(=O)N1C[C@@H](CF)[C@@H](NC(=O)c2c(C)nc(CNc3n[nH]c4cc(Cl)c(C(C)(C)C)cc34)n2C)C1` [Example 66, N-((3R,4R)-1-acryloyl-4-(fluoromethyl)pyrrolidin-3-yl)-2-(((5-(tert-butyl)-6-chloro-1H-indazol-3-yl)amino)methyl)-1,4-dimethyl-1H-imidazole-5-carboxamide] yielded an IC50 of 0.02 µM.

The compound `C/C=C/C(=O)N1CC(NC(=O)c2c(C)nc(CNc3n[nH]c4cc(Cl)c(C(C)(C)C)cc34)n2C(C)C)C1` [Example 81, (E)-N-(1-(but-2-enoyl)azetidin-3-yl)-2-(((5-(tert-butyl)-6-chloro-1H-indazol-3-yl)amino)methyl)-1-isopropyl-4-methyl-1H-imidazole-5-carboxamide] had an IC50 of 2.63 µM.

For `C=CC(=O)N1CC(NC(=O)c2c(C)nc(CNc3n[nH]c4ccc(C(C)(C)C)cc34)n2C(C)C)C1` [Example 42, N-(1-acryloylazetidin-3-yl)-2-(((5-(tert-butyl)-1H-indazol-3-yl)amino)methyl)-1-isopropyl-4-methyl-1H-imidazole-5-carboxamide], half-maximal inhibition (IC50) required 0.068 µM.

Consider `C=CC(=O)N1C[C@@H](CC)[C@@H](NC(=O)c2c(C)nc(CNc3n[nH]c4cc(Cl)c(C(C)(C)C)cc34)n2C)C1` [Example 69, N-((3R,4R)-1-acryloyl-4-ethylpyrrolidin-3-yl)-2-(((5-(tert-butyl)-6-chloro-1H-indazol-3-yl)amino)methyl)-1,4-dimethyl-1H-imidazole-5-carboxamide], for which inhibition was half-maximal at 6.65 µM (IC50).

On to `C=CC(=O)N1C[C@@H](F)[C@@H](NC(=O)c2c(C)nc(CNc3n[nH]c4cc(Cl)c(C(C)(C)C)cc34)n2C)C1` [Example 57, N-((3S,4R)-1-acryloyl-4-fluoropyrrolidin-3-yl)-2-(((5-(tert-butyl)-6-chloro-1H-indazol-3-yl)amino)methyl)-1,4-dimethyl-1H-imidazole-5-carboxamide], for which the IC50 amounted to 0.324 µM.

Compound `C=CC(=O)N1CC(NC(=O)c2c(Cl)nc(CNc3n[nH]c4cc(Cl)c(C(C)(C)C)cc34)n2C2CN(C(=O)OC(C)(C)C)C2)C1` [Example 106, Tert-butyl 3-(5-((1-acryloylazetidin-3-yl)carbamoyl)-2-(((5-(tert-butyl)-6-chloro-1H-indazol-3-yl)amino)methyl)-4-chloro-1H-imidazol-1-yl)azetidine-1-carboxylate] gave an IC50 of 0.008 µM. This IC50 lies about 40-fold lower than the previous one.

As for `C=CC(=O)N(C)C1CN(C(=O)c2c(C)nc(CNc3n[nH]c4cc(Cl)c(C(C)(C)C)cc34)n2C)C1` [Example 51, N-(1-(2-(((5-(tert-butyl)-6-chloro-1H-indazol-3-yl)amino)methyl)-1,4-dimethyl-1H-imidazole-5-carbonyl)azetidin-3-yl)-N-methylacrylamide], the IC50 turned out to be 0.042 µM.

Compound `Cc1nc(CNc2n[nH]c3cc(Cl)c(C(C)(C)C)cc23)n(C(C)C)c1C(=O)NC1CN(C(=O)/C=C\Cl)C1` [Example 83, (Z)-2-(((5-(tert-butyl)-6-chloro-1H-indazol-3-yl)amino)methyl)-N-(1-(3-chloroacryloyl)azetidin-3-yl)-1-isopropyl-4-methyl-1H-imidazole-5-carboxamide] had an IC50 of 2.35 µM. This IC50 is about 56-fold higher than that of the compound before.

Consider `C=CC(=O)N1CC(NC(=O)c2c(C(F)F)nc(CNc3n[nH]c4cc(Cl)c(C(C)(C)C)cc34)n2C(C)C)C1` [Example 33, N-(1-acryloylazetidin-3-yl)-2-(((5-(tert-butyl)-6-chloro-1H-indazol-3-yl)amino)methyl)-4-(difluoromethyl)-1-isopropyl-1H-imidazole-5-carboxamide], for which the IC50 is 0.013 µM.

`C=CC(=O)N1CC(NC(=O)c2c(Cl)nc(CNc3n[nH]c4cc(Cl)c(C(C)(C)C)cc34)n2C2CN(C(C)C)C2)C1` [Example 107, N-(1-acryloylazetidin-3-yl)-2-(((5-(tert-butyl)-6-chloro-1H-indazol-3-yl)amino)methyl)-4-chloro-1-(1-isopropylazetidin-3-yl)-1H-imidazole-5-carboxamide] had an IC50 of 0.004 µM. Compared with the last compound, the IC50 is about 3.2-fold lower.

Compound `C=CC(=O)N1CC(NC(=O)c2c(Cl)nc(CNc3n[nH]c4cc(Cl)c(C(C)(C)C)cc34)n2[C@@H]2CCN(C(C)C)C2)C1` [Example 114, (R)-N-(1-acryloylazetidin-3-yl)-2-(((5-(tert-butyl)-6-chloro-1H-indazol-3-yl)amino)methyl)-4-chloro-1-(1-isopropylpyrrolidin-3-yl)-1H-imidazole-5-carboxamide] had an IC50 of 0.007 µM.

In turn, `C=CC(=O)N1CC(NC(=O)c2cnc(CNc3n[nH]c4cc(Cl)c(C(C)(C)C)nc34)n2C)C1` [Example 40, N-(1-acryloylazetidin-3-yl)-2-(((5-(tert-butyl)-6-chloro-1H-pyrazolo[4,3-b]pyridin-3-yl)amino)methyl)-1-methyl-1H-imidazole-5-carboxamide] gave an IC50 of 0.027 µM.

With `C=CC(=O)N1CC(NC(=O)c2c(Cl)nc(CNc3n[nH]c4cc(Cl)c(C(C)(C)C)cc34)n2CCCC)C1` [Example 87, N-(1-acryloylazetidin-3-yl)-1-butyl-2-(((5-(tert-butyl)-6-chloro-1H-indazol-3-yl)amino)methyl)-4-chloro-1H-imidazole-5-carboxamide], 0.014 µM corresponded to half-maximal inhibition (IC50). This IC50 lies about 1.9-fold lower than the previous one.

For the compound `C=CC(=O)N1CC(NC(=O)c2c(Cl)nc(CNc3n[nH]c4cc(Cl)c(C(C)(C)C)cc34)n2CC2CCCC2)C1` [Example 110, N-(1-acryloylazetidin-3-yl)-2-(((5-(tert-butyl)-6-chloro-1H-indazol-3-yl)amino)methyl)-4-chloro-1-(cyclopentylmethyl)-1H-imidazole-5-carboxamide], the half-maximal inhibitory concentration (IC50) was 0.009 µM.

In the case of `C=CC(=O)N1CC(NC(=O)c2c(C)nc(CNc3n[nH]c4cc(Cl)c(C(C)(C)C)cc34)n2C(C)C)C1` [Example 13, N-(1-acryloylazetidin-3-yl)-2-(((5-(tert-butyl)-6-chloro-1H-indazol-3-yl)amino)methyl)-1-isopropyl-4-methyl-1H-imidazole-5-carboxamide], the IC50 is 0.015 µM.
